Data from patent US10570184B2, “GLP-1/glucagon receptor co-agonists for medical use” (Novo Nordisk A/S, priority 2014, dated 2020).
Starred links: 1 amine or outer side, 2 acyl side, 3 side chain; linkers in the order of their positions; H or OH if unused. Non-standard residues stand in square brackets, D forms with d. Residues, ends and D or L forms follow the SMILES beside them. Groups on a side chain read outwards from the residue. *: point of attachment. C18 diacid = O=C(O)CCCCCCCCCCCCCCCCC(=O)*; γGlu = O=C(O)[C@H](CCC(=O)[*:2])N[*:1]; AEEA = NCCOCCOCC(=O)O; Aib = CC(C)(N)C(=O)O

Assays:
[1] = Assay (III) ThT fibrillation assay for physical stability; type: physicochemical; conditions: 250 μM in 10 mM HEPES buffer, 37° C., shaking 960 rpm
Procedure, shortened: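 Glucagon derivative at 250 μM in 10 mM HEPES pH 7.5 with 1 μM ThT was incubated at 37 °C under 960 rpm orbital shaking. Fluorescence (ex 444/em 485 nm) was read every 20 min and fitted for lag time (t0−2τ) and kapp (1/τ). Recovery was soluble peptide after centrifugation/filtration, by RP-HPLC, as percent of initial.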

human GLP-1 receptor = target: T1, human GLP-1 receptor (Homo sapiens, UniProt P43220); assay: Assay (I)(a) GLP-1 receptor activation, CRE luciferase reporter gene assay in BHK cells; type: cell-based; conditions: without presence of serum albumin; read-out: GLP-1R EC50 (pM) [Assay (I)(a)]
T1 construct: expressed in transfected cells; host or cells: membranes of BHK cells (parent BHKTS13), clone FCW467-12A
T1 sequence (P43220 24-463): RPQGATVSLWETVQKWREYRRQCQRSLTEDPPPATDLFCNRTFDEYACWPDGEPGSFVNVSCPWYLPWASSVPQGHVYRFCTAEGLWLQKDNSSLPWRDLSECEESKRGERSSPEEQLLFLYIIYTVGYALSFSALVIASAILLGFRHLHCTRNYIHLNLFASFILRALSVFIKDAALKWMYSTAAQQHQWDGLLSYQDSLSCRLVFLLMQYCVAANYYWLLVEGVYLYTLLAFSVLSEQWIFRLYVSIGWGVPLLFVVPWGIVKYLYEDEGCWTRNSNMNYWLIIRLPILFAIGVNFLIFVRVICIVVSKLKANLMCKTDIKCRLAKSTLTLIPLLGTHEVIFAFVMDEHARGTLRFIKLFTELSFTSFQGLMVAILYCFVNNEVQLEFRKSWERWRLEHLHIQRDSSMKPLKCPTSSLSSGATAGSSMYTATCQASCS
Procedure, shortened: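 Stable BHK clone expressing human GLP-1 receptor with CRE-driven firefly luciferase, 5×10EE3 cells/well in medium with 2% ovalbumin and 0.2% Pluronic F-68. Compounds at 1×10EE-13 to 1×10EE-6 M final, 3 h at 37° C.; luminescence read, EC50 (pM) from four-parameter fit.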

**Q.** What does the source list for `CC[C@H](C)[C@H](NC(=O)[C@H](CC(C)C)NC(=O)[C@H](Cc1c[nH]c2ccccc12)NC(=O)[C@H](CCC(N)=O)NC(=O)[C@@H](NC(=O)[C@H](Cc1ccccc1)NC(=O)[C@H](CC(=O)O)NC(=O)[C@H](CCCNC(=N)N)NC(=O)[C@H](C)NC(=O)[C@H](CCCNC(=N)N)NC(=O)[C@H](CCCNC(=N)N)NC(=O)[C@H](C)NC(=O)[C@H](CC(=O)O)NC(=O)[C@H](CC(C)C)NC(=O)[C@H](Cc1ccc(O)cc1)NC(=O)[C@H](CCCCN)NC(=O)[C@H](CO)NC(=O)[C@H](CC(C)C)NC(=O)[C@H](CC(=O)O)NC(=O)[C@H](CO)NC(=O)[C@@H](NC(=O)[C@H](Cc1ccccc1)NC(=O)[C@@H](NC(=O)CNC(=O)[C@H](CCC(N)=O)NC(=O)C(C)(C)NC(=O)[C@@H](N)Cc1c[nH]cn1)[C@@H](C)O)[C@@H](C)O)C(C)C)C(=O)N[C@@H](CO)C(=O)N[C@@H](CCCCNC(=O)CC[C@H](NC(=O)CC[C@H](NC(=O)COCCOCCNC(=O)COCCOCCNC(=O)CC[C@H](NC(=O)CCCCCCCCCCCCCCCCC(=O)O)C(=O)O)C(=O)O)C(=O)O)C(N)=O` [Chem. 27, N^ε29-[(4S)-4-carboxy-4-[[(4S)-4-carboxy-4-[[2-[2-[2-[[2-[2-[2-[[(4S)-4-carboxy-4-(17-carboxyheptadecanoylamino)butanoyl]amino]ethoxy]ethoxy]acetyl]amino]ethoxy]ethoxy]acetyl]amino]butanoyl]amino]butanoyl]-[Aib2,Leu10,Ala16,Arg20,Ile27,Ser28,Lys29]-Glucagon amide] (H-H[Aib]QGTFTSDLSKYLDARRARDFVQWLISK([γGlu-γGlu-AEEA-AEEA-γGlu-C18 diacid])-NH2; N-terminus assumed)?
**A.** ThT Assay Lag time (h) [Assay (III), pH 7.5] [1]: 45.0 h; EC50 (human GLP-1 receptor): 3 pM

**Q.** What does the source list for `CC[C@H](C)[C@H](NC(=O)[C@H](CC(C)C)NC(=O)[C@H](Cc1c[nH]c2ccccc12)NC(=O)[C@H](CCC(N)=O)NC(=O)[C@@H](NC(=O)[C@H](Cc1ccccc1)NC(=O)[C@H](CCC(=O)O)NC(=O)[C@H](CCCNC(=N)N)NC(=O)[C@H](C)NC(=O)[C@H](CCCNC(=N)N)NC(=O)[C@H](CCCNC(=N)N)NC(=O)[C@H](C)NC(=O)[C@H](CC(=O)O)NC(=O)[C@H](CC(C)C)NC(=O)[C@H](Cc1ccc(O)cc1)NC(=O)[C@H](CCCCN)NC(=O)[C@H](CO)NC(=O)[C@H](CC(C)C)NC(=O)[C@H](CC(=O)O)NC(=O)[C@H](CO)NC(=O)[C@@H](NC(=O)[C@H](Cc1ccccc1)NC(=O)[C@@H](NC(=O)CNC(=O)[C@H](CCC(N)=O)NC(=O)C(C)(C)NC(=O)[C@@H](N)Cc1c[nH]cn1)[C@@H](C)O)[C@@H](C)O)C(C)C)C(=O)N[C@@H](CO)C(=O)N[C@@H](CCCCNC(=O)CC[C@H](NC(=O)CC[C@H](NC(=O)COCCOCCNC(=O)COCCOCCNC(=O)CC[C@H](NC(=O)CCCCCCCCCCCCCCCCC(=O)O)C(=O)O)C(=O)O)C(=O)O)C(N)=O` [Chem. 28, N^ε29-[(4S)-4-carboxy-4-[[(4S)-4-carboxy-4-[[2-[2-[2-[[2-[2-[2-[[(4S)-4-carboxy-4-(17-carboxyheptadecanoylamino)butanoyl]amino]ethoxy]ethoxy]acetyl]amino]ethoxy]ethoxy]acetyl]amino]butanoyl]amino]butanoyl]-[Aib2,Leu10,Ala16,Arg20,Glu21,Ile27,Ser28,Lys29]-Glucagon amide] (H-H[Aib]QGTFTSDLSKYLDARRAREFVQWLISK([γGlu-γGlu-AEEA-AEEA-γGlu-C18 diacid])-NH2; N-terminus assumed)?
**A.** ThT Assay Lag time (h) [Assay (III), pH 7.5] [1]: 45.0 h; EC50 (human GLP-1 receptor): 3 pM

**Q.** Which results are given for `CC[C@H](C)[C@H](NC(=O)[C@H](CC(C)C)NC(=O)[C@H](Cc1c[nH]c2ccccc12)NC(=O)[C@H](C)NC(=O)[C@@H](NC(=O)[C@H](Cc1ccccc1)NC(=O)[C@H](CC(=O)O)NC(=O)[C@H](CCCNC(=N)N)NC(=O)[C@H](C)NC(=O)[C@H](CCCNC(=N)N)NC(=O)[C@H](CCCNC(=N)N)NC(=O)[C@H](C)NC(=O)[C@H](CC(=O)O)NC(=O)[C@H](CC(C)C)NC(=O)[C@H](Cc1ccc(O)cc1)NC(=O)[C@H](CCCCN)NC(=O)[C@H](CO)NC(=O)[C@H](Cc1ccc(O)cc1)NC(=O)[C@H](CC(=O)O)NC(=O)[C@H](CO)NC(=O)[C@@H](NC(=O)[C@H](Cc1ccccc1)NC(=O)[C@@H](NC(=O)CNC(=O)[C@H](CCC(N)=O)NC(=O)C(C)(C)NC(=O)[C@@H](N)Cc1c[nH]cn1)[C@@H](C)O)[C@@H](C)O)C(C)C)C(=O)N[C@@H](CCCCNC(=O)CC[C@H](NC(=O)CC[C@H](NC(=O)COCCOCCNC(=O)COCCOCCNC(=O)CC[C@H](NC(=O)CCCCCCCCCCCCCCCCC(=O)O)C(=O)O)C(=O)O)C(=O)O)C(=O)N[C@H](C(N)=O)[C@@H](C)O` [Chem. 32, N^ε28-[(4S)-4-carboxy-4-[[(4S)-4-carboxy-4-[[2-[2-[2-[[2-[2-[2-[[(4S)-4-carboxy-4-(17-carboxyheptadecanoylamino)butanoyl]amino]ethoxy]ethoxy]acetyl]amino]ethoxy]ethoxy]acetyl]amino]butanoyl]amino]butanoyl]-[Aib2,Ala16,Arg20,Ala24,Ile27,Lys28]-Glucagon amide] (H-H[Aib]QGTFTSDYSKYLDARRARDFVAWLIK([γGlu-γGlu-AEEA-AEEA-γGlu-C18 diacid])T-NH2)?
**A.** ThT Assay Lag time (h) [Assay (III), pH 7.5] [1]: 45.0 h; EC50 (human GLP-1 receptor): 2 pM

**Q.** For `CC[C@H](C)[C@H](NC(=O)[C@H](CC(C)C)NC(=O)[C@H](Cc1c[nH]c2ccccc12)NC(=O)[C@H](C)NC(=O)[C@@H](NC(=O)[C@H](Cc1ccccc1)NC(=O)[C@H](CC(=O)O)NC(=O)[C@H](CCC(N)=O)NC(=O)[C@H](C)NC(=O)[C@H](CCCNC(=N)N)NC(=O)[C@H](CCCNC(=N)N)NC(=O)[C@H](CO)NC(=O)[C@H](CCC(=O)O)NC(=O)[C@H](CC(C)C)NC(=O)[C@H](Cc1ccc(O)cc1)NC(=O)[C@H](CCCCN)NC(=O)[C@H](CO)NC(=O)[C@H](Cc1ccc(O)cc1)NC(=O)[C@H](CC(=O)O)NC(=O)[C@H](CO)NC(=O)[C@@H](NC(=O)[C@H](Cc1ccccc1)NC(=O)[C@@H](NC(=O)CNC(=O)[C@H](CCC(N)=O)NC(=O)C(C)(C)NC(=O)[C@@H](N)Cc1c[nH]cn1)[C@@H](C)O)[C@@H](C)O)C(C)C)C(=O)N[C@@H](CCCCNC(=O)CC[C@H](NC(=O)CC[C@H](NC(=O)COCCOCCNC(=O)COCCOCCNC(=O)CC[C@H](NC(=O)CCCCCCCCCCCCCCCCC(=O)O)C(=O)O)C(=O)O)C(=O)O)C(=O)N[C@H](C(N)=O)[C@@H](C)O` [Chem. 34, N^ε28-[(4S)-4-carboxy-4-[[(4S)-4-carboxy-4-[[2-[2-[2-[[2-[2-[2-[[(4S)-4-carboxy-4-(17-carboxyheptadecanoylamino)butanoyl]amino]ethoxy]ethoxy]acetyl]amino]ethoxy]ethoxy]acetyl]amino]butanoyl]amino]butanoyl]-[Aib2,Glu15,Ala24,Ile27,Lys28]-Glucagon amide] (H-H[Aib]QGTFTSDYSKYLESRRAQDFVAWLIK([γGlu-γGlu-AEEA-AEEA-γGlu-C18 diacid])T-NH2), which “ThT Assay Lag time (h) [Assay (III), pH 7.5]” value [1] is on record?
**A.** 45.0 h

**Q.** What about the EC50 (human GLP-1 receptor) of the same compound?
**A.** 3 pM
